For series [1], the system named is methamphetamine-induced stereotypy. As to the kind of experiment: Potentiation of methamphetamine-induced stereotypy. Format: in vivo, male Wistar HLA rats. More on the design: key: ---: Marked antagonism; --: Moderate antagonism; -: Slight antagonism; 0: No interaction; +: Slight potentiation; ++: Moderate potentiation; +++: Marked potentiation. As to conditions: methamphetamine 2 mg/kg i.p. The method, then:
1. Potentiation of methamphetamine-induced stereotypy
This test was carried out by a modified method of R. T. Naylor (Life Sci., Vol. 10, page 909, 1971).
To male Wistar HLA rats, weighing 200 to 250 g (each group: 6 rats), were intraperitoneally administered the compounds to be tested. After 20 minutes, methamphetamine (2 mg/kg) was intraperitoneally administered to the test animals, and then the appeared stereotypy was observed. The effects of the test compounds were evaluated by the intensity of the stereotypy and the termination thereof.

Series [2] has as its system locomotion. Put plainly: Inhibiting activity of locomotion, mice (Animex method). Format: in vivo. As to conditions: Mus musculus, po, read-out: ED50 value, inhibiting activity of locomotion.
The subject of series [3] is locomotion. Put plainly: Inhibiting activity of locomotion, rats (Open-field method). It is filed as in vivo. As to conditions: Rattus norvegicus, read-out: ED50 value, inhibiting activity of locomotion. From the text:
3) Open-field method [C.S. Hall; J. Comp. Physiol. Psychol.

The test system of series [4] is conditioned avoidance response. As to the kind of experiment: Inhibiting activity of conditioned avoidance response, mice. Format: in vivo. As to conditions: Mus musculus, po, read-out: ED50 value, inhibiting activity of conditioned avoidance response.
In series [5] the test system is conditioned avoidance response. Put plainly: Inhibiting activity of conditioned avoidance response, rats (Shuttle box method). It is filed as in vivo. As to conditions: Rattus norvegicus, po, read-out: ED50 value, inhibiting activity of conditioned avoidance response.
For a further series, the system named is catalepsy. Put plainly: Cataleptogenic activity, rats. As to conditions: Rattus norvegicus, po, read-out: ED50 value, cataleptogenic activity. Format: in vivo.
Another series concerns muscle relaxant activity. As to the kind of experiment: Muscle relaxant activity, rats. It is filed as in vivo. As to conditions: Rattus norvegicus, read-out: ED50 value, muscle relaxant activity.
The test system of a further series is self-stimulation. As to the kind of experiment: Inhibiting activity of self-stimulation, rats. Format: in vivo. As to conditions: Rattus norvegicus, po, read-out: ED50 value, inhibiting activity of self-stimulation. From the text: 8) J. Olds et al; J. Comp. Physiol. Psychol., Vol. 47, page
Another series can be described thus: Acute toxicity, mice. As to conditions: mouse, in vivo; for LD50 at 96 h: observed 4 days. From the text:
(§1) Male and female STD-dd Y mice, weighing 20 to 22 g (each group: 10 mice) and male Wistar HLA rats, weighing 250 to 300 g (each group: 10 to 20 rats) were used.

Another series is described as follows: Acute toxicity, rats. As to conditions: rat, in vivo, male, observed 4 days.
Text: as §1

The structures appear in SMILES notation. Where two headings read alike, the source gives them in different places.

Text for catalepsy: The compounds of the present invention show the same central nervous system depressing pattern as the existing neuroleptics, such as an inhibiting activity of locomotion, an inhibiting activity of conditioned avoidance response, a cataleptogenic activity, a muscle relaxant activity, an inhibiting activity of self-stimulation, and an anti-methamphetamine activity in terms of locomotor activity.

Turning to `Cl.Cl.O=C(CCCN1CCC2Nc3ccccc3C2C1)c1ccc(F)cc1` (stereo not shown) [compound 2, 2-[γ-(p-Fluorobenzoyl)propyl]-2,3,4,4a,5,9b-hexahydro-1H-pyrido[4,3-b]indole dihydrochloride], the “Stereotypy Intensity” value in series [1] (1.0 mg/kg i.p.) is 0; in series [1] (2.0 mg/kg i.p.), 0; in series [1] (5.0 mg/kg i.p.) it was 0; in series [1] (10.0 mg/kg i.p.), “-”. For the same molecule, the “Stereotypy Termination” value in [1] (1.0 mg/kg i.p.), in series [1] (2.0 mg/kg i.p.), in series [1] (5.0 mg/kg i.p.) and in series [1] (10.0 mg/kg i.p.) was 0 in each case.

Consider `CCN1c2ccc(C)cc2C2CN(CCCC(=O)c3ccc(F)cc3)CCC21.Cl.Cl` (stereo not shown) [D, 5-Ethyl-8-methyl-2-[γ-(p-fluorobenzoyl)propyl]-2,3,4,4a,5,9b-hexahydro-1H-pyrido[4,3-b]indole dihydrochloride], for which the “Stereotypy Intensity” value in series [1] (1.0 mg/kg i.p.) is 0; in series [1] (2.0 mg/kg i.p.), 0; in series [1] (5.0 mg/kg i.p.) it was “+”; in [1] (10.0 mg/kg i.p.) it was “+++”. The “Stereotypy Termination” value in [1] (1.0 mg/kg i.p.) is recorded as 0; in series [1] (2.0 mg/kg i.p.) it was 0; in series [1] (5.0 mg/kg i.p.), “++”; in [1] (10.0 mg/kg i.p.) it was “+++”.

As for `Cc1ccc2c(c1)C1CN(CCCC(=O)c3ccc(F)cc3)CCC1N2C.Cl.Cl` (stereo not shown) [C, 5,8-Dimethyl-2-[γ-(p-fluorobenzoyl)propyl]-2,3,4,4a,5,9b-hexahydro-1H-pyrido[4,3-b]indole dihydrochloride], the “Stereotypy Intensity” value was 0 in series [1] (1.0 mg/kg i.p.), 0 in series [1] (2.0 mg/kg i.p.), “++” in [1] (5.0 mg/kg i.p.) and “++” in [1] (10.0 mg/kg i.p.). Further, the “Stereotypy Termination” value in series [1] (1.0 mg/kg i.p.) is recorded as 0; in series [1] (2.0 mg/kg i.p.), 0; in series [1] (5.0 mg/kg i.p.), “++”; in series [1] (10.0 mg/kg i.p.), “+++”.

Take `CN1CCN(C2=Nc3cc(Cl)ccc3Nc3ccccc32)CC1` [Clozapine, 8-chloro-11-(4-methyl-1-piperazinyl)-5H-dibenzo[b,e][1,4]-diazepine]: the ED50 in the series on locomotion [2] (mice, p.o.) was 7.5 mg/kg; in the series on locomotion [3] (ip, rats, i.p.), 5.54 mg/kg; in the series with locomotion [3] (po, rats, p.o.), 27.4 mg/kg; in series [4] (mice, p.o.), 9.75 mg/kg; in series [5] (rats, p.o.) it was 34.7 mg/kg; in the series with catalepsy (rats, p.o.), greater than 100 mg/kg. The ED50 with muscle relaxant activity (ip, rats, i.p.) was determined as 5.41 mg/kg; with muscle relaxant activity (po, rats, p.o.), 28.1 mg/kg; in the series on self-stimulation (rats, p.o.), 61.8 mg/kg. Further, the LD50 at 96 h in the series “Acute toxicity, mice” (iv, male) amounted to 37 mg/kg; in the series “Acute toxicity, mice” (po, female), 212 mg/kg; in “Acute toxicity, mice” (po, male), 202 mg/kg; in “Acute toxicity, mice” (sc, male), 194 mg/kg; in the series “Acute toxicity, rats” (iv) it was 42 mg/kg; in the series “Acute toxicity, rats” (po), 251 mg/kg. In the series “Acute toxicity, rats” (sc), the LD50 at 96 h was 272 mg/kg.

As to `CN(C)CCCN1c2ccccc2Sc2ccc(Cl)cc21` [Chlorpromazine], the entries for the “Stereotypy Intensity” value in series [1] (2.0 mg/kg i.p.), in series [1] (5.0 mg/kg i.p.) and in [1] (10.0 mg/kg i.p.) were 0, “--” and “---”, respectively. For the same molecule, the entries for the “Stereotypy Termination” value in series [1] (2.0 mg/kg i.p.), in series [1] (5.0 mg/kg i.p.) and in [1] (10.0 mg/kg i.p.) were 0, “+” and “---”, respectively. In addition, the ED50 in the series with locomotion [2] was found to be 6.34 mg/kg; in the series on locomotion [3] (ip), 2.41 mg/kg; in the series with locomotion [3] (po) it was 9.88 mg/kg; in [4], 5.65 mg/kg; in series [5], 7.04 mg/kg; in the series on catalepsy, 16.1 mg/kg. Besides, the results for the ED50 in the series with muscle relaxant activity (ip), in the series with muscle relaxant activity (po) and with self-stimulation were 2.07 mg/kg, 4.38 mg/kg and 7.04 mg/kg, respectively. In the series “Acute toxicity, mice” (po, male, observed 7 days), the LD50 at 168 h was found to be 476 mg/kg.

With `Cc1ccc2[nH]c3c(c2c1)CN(CCCC(=O)c1ccc(F)cc1)CC3.Cl` [compound 1, 8-Methyl-2-[γ-(p-fluorobenzoyl)propyl]-2,3,4,5-tetrahydro-1H-pyrido[4,3-b]indole hydrochloride], the “Stereotypy Intensity” value in series [1] (1.0 mg/kg i.p.), in series [1] (2.0 mg/kg i.p.), in [1] (5.0 mg/kg i.p.) and in [1] (10.0 mg/kg i.p.) was 0 each time. The “Stereotypy Termination” value in [1] (1.0 mg/kg i.p.), in series [1] (2.0 mg/kg i.p.), in series [1] (5.0 mg/kg i.p.) and in [1] (10.0 mg/kg i.p.) was 0 each time.

As to `CCc1ccc2c(c1)C1CN(CCCC(=O)c3ccc(F)cc3)CCC1N2.Cl.Cl` (stereo not shown) [B, 8-Ethyl-2-[γ-(p-fluorobenzoyl)propyl]-2,3,4,4a,5,9b-hexahydro-1H-pyrido[4,3-b]indole dihydrochloride], the “Stereotypy Intensity” value is listed as “+” in series [1] (2.0 mg/kg i.p.), “+++” in [1] (5.0 mg/kg i.p.) and “+++” in series [1] (10.0 mg/kg i.p.). Moreover, the “Stereotypy Termination” value is listed as “+” in series [1] (2.0 mg/kg i.p.), “+++” in [1] (5.0 mg/kg i.p.) and “+++” in [1] (10.0 mg/kg i.p.).

Take `COc1ccc2c(c1)C1CN(CCCC(=O)c3ccc(F)cc3)CCC1N2.Cl.Cl` (stereo not shown) [compound 4, 8-Methoxy-2-[γ-(p-fluorobenzoyl)propyl]-2,3,4,4a,5,9b-hexahydro-1H-pyrido[4,3-b]indole dihydrochloride]: the “Stereotypy Intensity” value was 0 in [1] (1.0 mg/kg i.p.), 0 in series [1] (2.0 mg/kg i.p.), 0 in series [1] (5.0 mg/kg i.p.) and “--” in series [1] (10.0 mg/kg i.p.). Moreover, the “Stereotypy Termination” value in series [1] (1.0 mg/kg i.p.), in series [1] (2.0 mg/kg i.p.), in series [1] (5.0 mg/kg i.p.) and in [1] (10.0 mg/kg i.p.) was 0 throughout.

With `O=C(CCCN1CCC(O)(c2ccc(Cl)cc2)CC1)c1ccc(F)cc1` [Haloperidol], the “Stereotypy Intensity” value is 0 in series [1] (0.1 mg/kg i.p.), “-” in series [1] (0.2 mg/kg i.p.), “-- -” in series [1] (0.5 mg/kg i.p.) and “---” in [1] (1.0 mg/kg i.p.). For the same molecule, the “Stereotypy Termination” value is reported as “-” in [1] (0.1 mg/kg i.p.), “--” in series [1] (0.2 mg/kg i.p.), “--” in [1] (0.5 mg/kg i.p.) and “--” in series [1] (1.0 mg/kg i.p.).

Take `Cl.Cl.O=C(CCCN1CCC2Nc3ccc(F)cc3C2C1)c1ccc(F)cc1` (stereo not shown) [compound 3, 8-Fluoro-2-[γ-(p-fluorobenzoyl)propyl]-2,3,4,4a,5,9b-hexahydro-1H-pyrido[4,3-b]indole dihydrochloride]: the “Stereotypy Intensity” value was 0 in [1] (1.0 mg/kg i.p.), 0 in [1] (2.0 mg/kg i.p.), “-” in [1] (5.0 mg/kg i.p.) and “--” in series [1] (10.0 mg/kg i.p.). Moreover, the “Stereotypy Termination” value is recorded as 0 in series [1] (1.0 mg/kg i.p.), 0 in [1] (2.0 mg/kg i.p.), “-” in series [1] (5.0 mg/kg i.p.) and “--” in series [1] (10.0 mg/kg i.p.).

A word on the ED50: it is the dose at which the effect has come halfway, by size or by number of responders. The LD50 is the dose expected to kill half of the subjects tested.

These data come from patent publication US3983239A, “Hexahydro-γ-carboline derivatives and their salts” (priority 1974, dated 1976).
